# Results from patent US5648259A, “Polypeptides having NMDA receptor activity, nucleic acids encoding those polypeptides and applications” (priority 1992, dated 1997).
# How the values were obtained:
# [1] = test system: GR33 polypeptide SEQ ID No. 2; test: Pharmacological and electrophysiological study of Xenopus eggs microinjected with GR33 mRNA (induced current under applied potential); format: cell-based, rat; details: for effect on response induced by NMDA (200 μM): antagonist applied (200 μM) simultaneously with NMDA; for effect of competitive antagonist on responses to NMDA: concentration not given
# Protocol: The cDNA fragment isolated in Example 2 was transcribed into mRNA and microinjected into Xenopus eggs. The microinjected eggs thereby obtained were then tested for their capacity to bind certain labelled NMDA receptor ligands, or for their behaviour with respect to modulators of NMDA receptors.
# The plasmid containing the 1.7-kb cDNA coding for the GR33 polypeptide SEQ ID No. 2 was linearized in the presence of the enzyme SmaI, and then subjected to a transcription step in the presence of phage T7 RNA polymerase. Transcription was performed using the Stratagene Kit according to the manufacturer's recommendations.
# The synthetic RNA obtained above, dissolved in sterile water, was used (5 ng) for injection into mature Xenopus eggs (stages V and VI) in a volume of 50 nl. The eggs were then maintained for 3 days at 19° C. in multi well plates in a Barth medium supplemented with antibiotics (Miledi and Sumikawa, Biomed. Res. 3 (1982) 390).
# The eggs thereby obtained were then tested for the presence of functional NMDA receptors at their surface. For this purpose, the eggs were transferred to modified OR-2 medium lacking magnesium, of composition: 88 mM NaCl, 2.5 mM KCl, 1 mM CaCl2, 10 mM HEPES buffer, pH 7.4 adjusted with sodium hydroxide. The different drugs (ligands or modulators) were applied by perfusion (10 ml/min) for 10-30 seconds under an applied potential difference of -80 or -90 mV.
# [2] = test system: GR33 polypeptide SEQ ID No. 2; test: as above; format: cell-based, rat
# known NMDA receptors = details: cited from earlier work
smiles,measurement,setting,value
"N[C@H](CCCP(=O)(O)O)C(=O)O [AP5, D-2-amino-5-phosphonovaleric acid]",effect on response induced by NMDA (200 μM),[1],abolished
same,effect of competitive antagonist on responses to NMDA,[1],reduced
"N[C@H](CCCCCP(=O)(O)O)C(=O)O [AP7, D-2-amino-7-phosphonoheptanoic acid]",effect on response induced by NMDA (200 μM),[1],abolished
same,effect of competitive antagonist on responses to NMDA,[1],reduced
"CN[C@H](CC(=O)O)C(=O)O [NMDA, N-methyl-D-aspartate]",EC50,"[1]; GR33 expressed in Xenopus eggs, read-out: NMDA concentration giving 50% of the maximum response (ED50)",~10 µM
[Ca+2] [calcium],effect of calcium on GR33 activity,[1],inhibitory effect
same,effect on response induced by NMDA (200 μM),[2]; external calcium concentration increased to 2.5 mM,decreased
same,effect on activity of known NMDA receptors,known NMDA receptors,stimulates
"N[C@@H](CCC(=O)O)C(=O)O [glutamate, Glutamic acid]","strength of response among excitatory amino acids tested (glutamate, kainate, quisqualate, homocysteate)",[1],strongest responses
same,induction of inward current,"[1]; glutamate 0.1-1 mM, perfusion 10-30 s, -80 or -90 mV",induces an inward current
C=C(C)[C@H]1CN[C@H](C(=O)O)[C@H]1CC(=O)O [kainate],induction of inward current,[1]; kainate,little or no effect
[Mg+2] [magnesium],inhibitory effect of magnesium on GR33 activity,[1],30-70%
same,effect on response induced by NMDA (200 μM),[2]; magnesium 200 μM added to the medium,decreased
same,effect on activity of known NMDA receptors,known NMDA receptors,completely inhibits
N[C@@H](Cn1oc(=O)[nH]c1=O)C(=O)O [quisqualate],induction of inward current,[1]; quisqualate 50 μM,little or no effect
